According to ChEMBL document CHEMBL6127038, “How many organic small molecules might be used to treat COVID-19? From natural products to synthetic agents” (Eur J Med Chem, 2024):

What was measured:
[1] = molecular target: T1, Replicase polyprotein 1ab (Severe acute respiratory syndrome coronavirus 2, UniProt P0DTD1); assay: Inhibition of SARS-CoV-2 RdRp
SARS-CoV-2 [2] = assay: Antiviral activity against SARS-CoV-2 infected in human Calu-3 cells assessed as reduction in viral growth measured after 48 hrs by qRT-PCR analysis; type: functional, organism-based; settings: Severe acute respiratory syndrome coronavirus 2, Calu-3, 48 h
[3] = Inhibition of DENV-2 NS2B/NS3 protease; set-up: species or system dengue virus type 2
[4] = molecular target: Replicase polyprotein 1ab (Human coronavirus 229E, UniProt P0C6X1); assay: Inhibition of HCov-229E 3CLpro by FRET assay
SARS-CoV-2 [5] = assay: Anti-viral activity against SARS-CoV-2 infected in human A549 cells expressing hACE2 by firefly reporter assay; type: functional, organism-based; settings: Severe acute respiratory syndrome coronavirus 2, A549
Procathepsin L = Procathepsin L (Homo sapiens, UniProt P07711); assay: Inhibition of cathepsin L (unknown origin)
SARS-CoV-2 [6] = assay: Antiviral activity against wild type SARS-CoV-2 Omicron BA.5 infected in HEK293T cells assessed as reduction in viral replication measured after 48 hrs by Nano-Glo luciferase assay; type: functional, organism-based; settings: Severe acute respiratory syndrome coronavirus 2, HEK-293T
SARS-CoV-2 [7] = assay: Antiviral activity against wild type SARS-CoV-2 Omicron BA.1 infected in HEK293T cells assessed as reduction in viral replication measured after 48 hrs by Nano-Glo luciferase assay; type: functional, organism-based; settings: Severe acute respiratory syndrome coronavirus 2, Omicron BA.1, HEK-293T
[8] = molecular target: T1, Replicase polyprotein 1ab; assay: Inhibition of SARS-CoV-2 3CLPro
SARS-CoV-2 [9] = assay: Antiviral activity against SARS-CoV-2 infected in human HPAEpiC cells assessed as reduction in viral growth; type: functional, organism-based; settings: Severe acute respiratory syndrome coronavirus 2, HPAEpiC

Replicase polyprotein 1ab (Human coronavirus 229E, UniProt P0C6X1), sequence (P0C6X1 2966-3267 limits assumed): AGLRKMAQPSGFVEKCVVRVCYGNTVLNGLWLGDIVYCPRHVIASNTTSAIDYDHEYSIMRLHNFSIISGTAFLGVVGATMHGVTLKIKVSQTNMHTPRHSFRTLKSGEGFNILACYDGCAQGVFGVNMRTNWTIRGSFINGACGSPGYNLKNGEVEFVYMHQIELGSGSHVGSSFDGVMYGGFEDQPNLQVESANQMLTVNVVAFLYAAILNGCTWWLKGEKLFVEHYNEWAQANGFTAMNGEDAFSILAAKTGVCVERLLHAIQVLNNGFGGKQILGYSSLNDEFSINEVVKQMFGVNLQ
Procathepsin L, sequence (P07711 whole entry): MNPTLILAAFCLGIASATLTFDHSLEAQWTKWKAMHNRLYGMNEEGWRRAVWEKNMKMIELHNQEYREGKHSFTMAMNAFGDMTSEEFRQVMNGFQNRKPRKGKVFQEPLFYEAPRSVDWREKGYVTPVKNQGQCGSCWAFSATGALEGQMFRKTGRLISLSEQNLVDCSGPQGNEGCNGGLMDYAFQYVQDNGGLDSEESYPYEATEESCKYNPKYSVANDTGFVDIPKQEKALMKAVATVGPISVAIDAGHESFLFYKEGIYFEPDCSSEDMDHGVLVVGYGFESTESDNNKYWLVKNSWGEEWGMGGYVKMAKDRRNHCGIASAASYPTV

Q: For `CCCCC/C=C\C/C=C\CCCCCCCCOC(=O)[C@H](C)NP(=O)(OC[C@H]1O[C@@](C#N)(c2ccc3c(N)ncnn23)[C@H](O)[C@@H]1O)Oc1ccccc1` (stereo partly specified), which EC50 [1] is on record?
A: 440 nM

Q: Which IC50 (SARS-CoV-2 [2]) does the source give for `CCC(CC)COC(=O)[C@H](C)N[P@](=O)(OC[C@H]1O[C@@](c2noc(C(F)(F)F)n2)(c2ccc3c(N)ncnn23)[C@@H]2OC(C)(C)O[C@@H]21)Oc1ccccc1` here?
A: 19300 nM

Q: Which IC50 [3] does the source give for `C=C1NC(=O)[C@]2(C)CSC(=N2)c2csc(n2)[C@]2(C)CSC(=N2)[C@@H]([C@@H](C)CC)NC(=O)[C@@H](C)NC(=O)/C(=C\C(C)C)COC(=O)c2csc(n2)[C@H](C(C)C)N(C)C(=O)[C@H](COC)NC1=O` here?
A: 560 nM

Q: What about the IC50 [4] of the same compound?
A: 2390 nM

Q: With `CCOC(=O)/C=C/[C@H](C[C@@H]1CCNC1=O)NC(=O)[C@H](Cc1ccccc1)NC(=O)[C@@H](N)Cc1ccccc1` as the compound, how does the IC50 (SARS-CoV-2 [5]) read?
A: 8.2 nM

Q: What about the IC50 (Procathepsin L) of the same compound?
A: 60 nM

Q: What does the source list for `CCCCCCCCCC[C@@H]1CCC[C@]2(C=C(CO)[C@H]3CC(=O)C(C)=C[C@H]3O2)O1`?
A: EC50 (SARS-CoV-2 [6]): 160 nM; EC50 (SARS-CoV-2 [7]): 100 nM

Q: Which IC50 [4] does the source give for `CO[C@@H]1C[C@H](O[C@H]2C[C@](C)(CO)[C@@H]3CC[C@@]4(C)[C@@H]5CC[C@@H]6[C@H](CC(=O)[C@]7(C)C8=COC(N[C@H](C)C(C)C)=N[C@]8(C)[C@@H](O)[C@@H]8O[C@@]687)[C@@]5(C)CC[C@@H]4[C@@]3(C)[C@@H]2O)O[C@H](C)[C@H]1O` here?
A: 6.6 nM

Q: And the IC50 [8]?
A: 74 nM

Q: For `C=C1C(=O)[C@@]23C(=O)[C@@H](O)[C@@H]4C(C)(C)C[C@@H]5C(=O)OCC54[C@@H]2CC[C@@H]1[C@H]3OC(=O)C1Cc2ccccc2C1` (stereo partly specified), which EC50 (SARS-CoV-2 [9]) is on record?
A: 19 nM
